Laboratory results reported in patent EP1388013B1, “COMPOSITIONS AND METHODS FOR THE USE OF FIBRONECTIN FRAGMENTS IN THE DIAGNOSIS OF CANCER” (THE REGENTS OF THE UNIVERSITY OF MICHIGAN, priority 2001, dated 2002).
No end group written: not given here.

Assays:
[1] = test system: neonatal fibroblasts; experiment: SU-ECM invasion assay, neonatal fibroblasts; format: cell-based, human
Source text: In one example cells for the invasion assay are harvested by rinsing in Hanks' balanced salt solution, followed by brief treatment with 0.25% trypsin, 0.02% EDTA, and pelleting and resuspension in the appropriate medium with or without 5% FCS at a density of about 50,000 cells per ml. When appropriate, purified bovine plasma fibronectin (from Sigma, St. Louis, Mo), purified 120 kDa chymotryptic fragment (Gibco BRL) or PHSRN peptides (synthesized at the Biomedical Research Core Facilities of the University of Michigan) are added to the resuspended cells prior to placement of the cells on SU-ECM. In each well of a plate used for an invasion assay, SU-ECM were placed in 0.5 ml of the appropriate medium, and 0.5ml of the resuspended cells dropped on their exterior surfaces. Invasion assays were incubated 1 to 16 hours prior to assay. If some circumstances, invasion assays were fixed in phosphate-buffered saline (PBS) with 2% formaldehyde for 5 minutes at room temperature, then rinsed into PBS.
(§1) Invasion assays are coded and scored blindly by microscopic examination under phase contrast at 200- and 400-fold magnification. Each cell contacting an SU-ECM is scored for its position relative to the exterior or interior surfaces. A cell is judged to have invaded if it is located on an interior surface below the focal plane passing through the upper surface of the SU-ECM, but above the focal plane passing through its lower surface. The minimum viability of the cells in each assay is always ascertained at the time of assay by determining the fraction of spread, adherent cells on the bottom of each well scored.
(§2) An invasion frequency is defined as the fraction of cells in contact with basement membranes which are located in their interiors at the time of assay. Thus, an invasion frequency of 1 denotes invasion by 100% of the cells in contact with basement membranes. Invasion frequencies are determined multiple times for each cell type assayed. For each type of cell assayed the mean and standard deviation of the invasion frequencies were calculated.
In this example, the invasiveness of neonatal fibroblasts into an SU-ECM invasion substrate is considered. Experiments were performed under serum-free conditions, or in medium with 10% fetal calf serum (FCS). Neither serum-free medium nor medium containing serum supported fibroblast invasion. However, consistent with the induction of metalloproteinase gene transcription by the 120 kDa fragment of plasma fibronectin (pFn) containing the cell-binding domain, the 120 kDa fragment induced fibroblast invasion in the presence or in the absence of serum. […]

[2] = test system: normal human prostate epithelial cells; experiment: SU-ECM invasion assay, normal prostate epithelial cells; format: cell-based; conditions: SU-ECM, serum containing environment; Figure 12
Description: Adult Strongylocentrotus purpuratus sea urchins were obtained from Pacific BioMarine, and their embryos were cultured to the early pluteus stage in artificial sea water at 15°C. SU-ECM were prepared from them by treatment with nonionic detergent and sterilized by dilution in the appropriate media.
[…] When appropriate, purified bovine plasma fibronectin (Sigma, St. Louis, Mo), purified 120 kDa chymotryptic fragment (Gibco BRL), PHSRN or PHSCN peptides (synthesized at the Biomedical Research Core Facilities of the University of Michigan), or GRGDSP or GRGESP peptides (Gibco BRL) were added to the resuspended cells prior to placement of the cells on SU-ECM. In each well of a plate used for an invasion assay, SU-ECM were placed in 0.5 ml of the appropriate medium, and 0.5ml of the resuspended cells dropped on their exterior surfaces. Invasion assays were incubated 1 to 16 hours prior to scoring. If some circumstances, invasion assays were fixed in phosphate-buffered saline (PBS) with 2% formaldehyde for 5 minutes at room temperature, then rinsed into PBS.
as §1, with “were” for “are”, “was” for “is”
as §2, with “were” for “are”, “Thus, an invasion frequency of 1 denotes invasion by 100% of the cells in contact with basement membranes.” left out, “calculated. […]” for “calculated.”

PHSRN [PHSRN]
induction of fibroblast invasion of SU-ECM, dose response ([1]; 10 to 3000 ng per ml, presence or absence of serum, log-linear, Figure 10): able to induce fibroblast invasion
induction of fibroblast invasion of SU-ECM ([1]; in the presence (10% FCS) or absence of serum, molar concentration equivalent to plasma fibronectin in serum, Figure 9): contained all the invasion-stimulatory activity
induction of fibroblast invasion of SU-ECM ([1]; serum-free SU-ECM): induced
induction of invasive behavior of human prostate epithelial cells [2]: induces the invasive behaviors
